{
  "source": "patent US20140243418A1",
  "about": "“RASAGILINE FOR PARKINSON'S DISEASE MODIFICATION” (Teva Pharmaceutical Industries, Ltd., priority 2008, published 2014)",
  "key": {"[1]": {"system": "Early Stage PD patients", "text": "If, at any stage during the placebo-controlled phase the investigator determines that a subject needs additional anti-PD therapy, the subject will proceed to Phase II of the study. The investigator, aided by a questionnaire, will give careful consideration to the issue of a subject's need for additional anti-PD therapy. Scheduled in-clinic visits will be conducted at baseline and at weeks 4, 12, 24 and 36. Therefore, altogether there will be 5 scheduled visits during this phase. Unscheduled visits may be conducted at any time to assess a subject's need for additional anti-PD therapy, for safety reasons or for any other reason.\nIII. Additional Efficacy Endpoints • 1. Number (%) of subjects who need additional anti-PD therapy • 2. Time to need of additional anti-PD therapy • 3. Change from baseline to LOV in placebo-controlled phase in Part I of revised UPDRS (version 4)"}, "[2]": {"system": "Early Stage PD patients", "conditions": "rasagiline 1 mg and 2 mg; end of the PC phase", "text": "IV. Sub-Study • 1. Change from baseline to LOV in placebo-controlled phase in Parkinson Fatigue scale • 2. Change from baseline in Subject Reported Outcomes (US only) • 3. A blood sample for pharmacogenetic analysis will be collected from all subjects at baseline. If not performed at baseline, can be performed at any other visit. Participation in this sub-study is voluntary pending IRB/EC approval and subject's authorization on a separate informed consent form."}},
  "data": [
    {"smiles": "C#CCN[C@@H]1CCc2ccccc21", "note": "[rasagiline]", "values": [
      {"measurement": "Hazard Ratio, time to additional anti-PD therapy, 1 mg-Placebo Difference", "setting": "[1]; PC Phase, rasagiline 1 mg vs placebo, Cox Proportional Hazards Model", "result": 0.385},
      {"measurement": "Hazard Ratio, time to additional anti-PD therapy, 2 mg-Placebo Difference", "setting": "[1]; PC Phase, rasagiline 2 mg vs placebo, Cox Proportional Hazards Model", "result": 0.379},
      {"measurement": "Need for additional anti PD Therapy", "setting": "[1]; rasagiline 1 mg and 2 mg, end of the PC phase", "result": "beneficial effect"},
      {"measurement": "Parkinson Fatigue Scale", "setting": "[2]", "result": "beneficial effect"}
    ]}
  ]
}
